{"source": "patent US20250144220A1", "about": "“CONJUGATE FOR PREVENTING AND TREATING VIRAL INFECTIONS AND USE THEREOF” (priority 2021, published 2025)", "experiment_in_all_cases": "microbe, parasite or virus in culture", "assay_type_in_all_cases": "cell-based, influenza virus H1N1", "key": {"[1]": {"test_system": "Oseltamivir-resistant A/Weiss/43 (H1N1)"}, "[2]": {"test_system": "Baloxavir-resistant A/PR/8/34 (H1N1)"}, "[3]": {"test_system": "VX-787-resistant A/PR/8/34 (H1N1)"}}, "note": "Like-named read-outs stand apart in the source and are kept apart here."}
{"smiles": "CC(=O)N[C@H]1[C@H]([C@H](O)[C@H](O)CO)OC(C(=O)O)=C[C@@H]1N=C(N)N", "note": "[Zanamivir, zanamivir, reference compound]", "values": [{"measurement": "EC50", "setting": "[1]; read-out: EC50", "result": 24.4, "unit": "nM"}, {"measurement": "EC50", "setting": "[2]; read-out: EC50", "result": 1390, "unit": "nM"}, {"measurement": "EC50", "setting": "[3]; read-out: EC50", "result": 167, "unit": "nM"}]}
{"smiles": "O=C1c2c(O)c(=O)ccn2N([C@@H]2c3ccccc3SCc3c2ccc(F)c3F)[C@@H]2COCCN12", "note": "[Baloxavir, baloxivir]", "values": [{"measurement": "EC50", "setting": "[2]; Influenza A virus, MDCK, 120 h", "result": 95, "unit": "nM"}, {"measurement": "EC50", "setting": "[3]; Influenza A virus, MDCK, 120 h", "result": 0.58, "unit": "nM"}]}
{"smiles": "CCC(CC)O[C@@H]1C=C(C(=O)O)C[C@H](N)[C@H]1NC(C)=O", "note": "[Oseltamivir acid]", "values": [{"measurement": "EC50", "setting": "[1]; Influenza A virus, H1N1, MDCK, 120 h", "result": "> 100000", "unit": "nM"}, {"measurement": "EC50", "setting": "[2]; Influenza A virus, MDCK, 120 h", "result": 2380, "unit": "nM"}, {"measurement": "EC50", "setting": "[3]; Influenza A virus, MDCK, 120 h", "result": 1060, "unit": "nM"}]}
